Test results taken from patent US20250008983A1, “COMPOSITIONS CONTAINING PEROXYACIDS TO CONTROL PATHOGEN GROWTH IN ANIMAL FEED AND RELATED METHODS” (KEMIN INDUSTRIES, INC., priority 2023, published 2025).
Several values for one entry are separate records, joined by “and”; a condition that tells them apart may be missing. Equal entries are not always repeated. Marks after values point to notes of the source that are not given here.

Legend:
[1] = test system: Salmonella enteriditis ATCC 13076; experiment: DNA interaction Assay 2: treatment added to cells followed by extraction; format: cell-based; settings: 1 kg/T; two hours at 37° C.; n = 3
Method: Method (Assay 1: Treatment added to extracted DNA directly). One mL of cell suspension (ca. 10^8 cfu/mL in TSBYE) was harvested by centrifugation at 5000 rcf for 10 minutes. The supernatant was discarded and resuspended as detailed in the protocol provided by the supplier. DNA was extracted using the QIAamp DNA Mini kit (Cat #51304, Qiagen). The samples were incubated at 56° C. for two hours and eluted with 200 uL of nuclease-free water. The same eluent was run through the column twice to increase the DNA concentration. Extracted DNA was quantified using Quant-iT dsDNA high-sensitivity assay kit (Q33120; Thermo Fischer Scientific). Extracted DNA was subsequently treated with the different treatment groups with a final concentration of 1 kg/T (prepared in 10 mM PBS). 1.5 uL of treatment solution (prepared at 10 times higher concentration) is added to 13.5 uL of extracted DNA. The solution was mixed well and left to stand at room temperature for one hour. After one hour, the solution was diluted with nuclease-free water 10 times. DNA was subsequently quantified using Quant-iT dsDNA high-sensitivity assay kit (Q33120; Thermo Fischer Scientific). Method (Assay 2: Treatment added to cells followed by extraction). […] Extracted DNA was quantified using Quant-iT dsDNA high-sensitivity assay kit (Q33120; Thermo Fischer Scientific). […]

[2] = Degradation of PPA in diluted/Opticurb solutions with mild steel; format: physicochemical; settings: in contact with mild steel
Method: Degradation of PPA in diluted/Opticurb solutions with mild steel. In another study, the solution of PPA with different diluents was measured for the peroxyacid content initially and after 1 h of immersing the […] to test the PPA degradation rate.

[3] = test system: cocktail of four freeze-dried salmonella strains; experiment: Peroxypropionic acid efficacy against Salmonella in swine feed; format: cell-based, Salmonella typhimurium, senftenberg, montevideo, enteritidis; settings: for Average CFU/g feed / Log CFU/g / Total CFU: 4 h; for Total counts in CFU at 4 h (n = 5): swine mash feed, PPA with sodium phosphate buffer (9:1), ~pH 7-8, five replicate cells
Excerpt: Swine mash feed contains a bigger particle size of corn-soy matrix compared to broiler mash feed. Thus, it could pose a challenge to expect the same antimicrobial efficacy as observed in broiler feed due to the shielding effect. Therefore, to maximize the efficacy of the peroxypropionic acid on the swine feed, an optimal droplet size of the peroxypropionic acid was required to ensure maximum distribution of the product onto the feed. Swine mash feed of 25 g was taken in five individual bags and inoculated with 10 mg cocktail of four freeze-dried salmonella strains of Salmonella typhimurium ATCC 14028, Salmonella senftenberg ATCC 43485, Salmonella montevideo ATCC 8387, and Salmonella enteritidis ATCC 13076 in such a way that the total infection in the feed was ˜2 logs. Then, the feed samples were treated with peroxypropionic acid solution (˜17% PPA, 7% H2O2) and sodium phosphate buffer premix (9:1 ratio) at 1.5 kg/T, 3 Kg/T, and 6 Kg/T. The feed was enumerated completely for Salmonella count using EB plates at 4 h after treatment. Two untreated controls, NC-A and NC-B were kept as negative controls to represent the infection in the feed.

[4] = 2.5% ammonium hydroxide, after 15 minutes
[5] = 2.5% ammonium hydroxide, after 60 minutes
[6] = 5% sodium hydroxide, after 15 minutes
[7] = 5% sodium hydroxide, after 60 minutes
[8] = Sodium phosphate buffer, after 15 minutes
[9] = Sodium phosphate buffer, after 60 minutes

## CCC(=O)OO [Perpropionic acid, perpropionic acid]
[1]
  DNA concentration, Average ± SD, Assay 2: 34.97 ± 4.54^a ng/uL
[2]; 2.5% ammonium hydroxide
  PPA degradation/min: 1.10%
[2]; [4]
  H2O2 (%): 0.77%
  PPA (%): 2.03%
[2]; [5]
  H2O2 (%): 0.44%
  PPA (%): 0.97%
[2]; 5% sodium hydroxide
  PPA degradation/min: 1.16%
[2]; [6]
  H2O2 (%): 0.9%
  PPA (%): 2.93%
[2]; [7]
  H2O2 (%): 0.37%
  PPA (%): 1.48%
[2]; [8]
  H2O2 (%): 1.67%
  PPA (%): 5.27%
[2]; [9]
  H2O2 (%): 1.6%
  PPA (%): 4.67%
[2]; ammonium hydroxide (2.5% wt)
  PPA degradation after an hour: 50%
[2]; sodium hydroxide (5% wt.)
  PPA degradation after an hour: 52%
[2]; sodium phosphate buffer
  PPA degradation after an hour: ~11%
  PPA degradation/min: 0.25%
[3]; 1.5 Kg/T
  Average CFU/g feed: 18 CFU/g feed
  Log CFU/g: 1.26 Log CFU/g
  Total CFU: 90 CFU
[3]; 3 Kg/T
  Average CFU/g feed: 0 CFU/g feed
  Log CFU/g: 0.00 Log CFU/g
  Total CFU: 0 CFU
  Total counts in CFU at 4 h (n = 5): 0 CFU
[3]; 6 Kg/T
  Average CFU/g feed: 0 CFU/g feed
  Log CFU/g: 0.00 Log CFU/g
  Total CFU: 0 CFU
  Total counts in CFU at 4 h (n = 5): 0 CFU
[3]; 1.5 Kg/T, listed as PPA
  Total counts in CFU at 4 h (n = 5): 20 CFU and 10 CFU (2×) and 50 CFU and 0 CFU
